Experiment [1] has as its target T1, Squalene synthase (Rattus norvegicus, UniProt Q02769).
T1 sequence (Q02769 whole entry): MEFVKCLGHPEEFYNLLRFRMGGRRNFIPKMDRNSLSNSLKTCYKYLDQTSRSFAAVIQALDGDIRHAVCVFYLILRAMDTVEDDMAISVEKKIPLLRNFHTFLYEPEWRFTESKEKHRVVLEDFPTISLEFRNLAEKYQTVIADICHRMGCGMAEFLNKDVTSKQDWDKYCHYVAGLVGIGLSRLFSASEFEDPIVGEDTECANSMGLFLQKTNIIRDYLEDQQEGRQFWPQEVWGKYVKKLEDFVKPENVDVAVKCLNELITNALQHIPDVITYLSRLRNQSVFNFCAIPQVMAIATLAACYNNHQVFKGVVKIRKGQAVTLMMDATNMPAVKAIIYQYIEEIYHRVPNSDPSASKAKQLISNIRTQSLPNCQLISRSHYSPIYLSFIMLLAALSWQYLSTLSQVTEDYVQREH
The experiment can be described thus: Inhibition of rat squalene synthase.

In experiment [2] the target is T2, Squalene synthase (Homo sapiens, UniProt P37268).
T2 sequence (P37268 whole entry): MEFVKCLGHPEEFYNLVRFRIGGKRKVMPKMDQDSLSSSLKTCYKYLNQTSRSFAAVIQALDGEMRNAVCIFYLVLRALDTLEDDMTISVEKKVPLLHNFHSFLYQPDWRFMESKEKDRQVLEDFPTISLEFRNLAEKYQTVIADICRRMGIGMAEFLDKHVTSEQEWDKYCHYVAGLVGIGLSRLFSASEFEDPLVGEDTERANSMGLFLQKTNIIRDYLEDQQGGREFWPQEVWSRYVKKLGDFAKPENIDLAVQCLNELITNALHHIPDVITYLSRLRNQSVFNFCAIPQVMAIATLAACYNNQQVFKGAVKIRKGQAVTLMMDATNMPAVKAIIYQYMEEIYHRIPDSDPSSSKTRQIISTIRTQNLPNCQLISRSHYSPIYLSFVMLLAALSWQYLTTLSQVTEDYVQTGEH
The experiment in a line: Inhibition of squalene synthase.

Structures are written as SMILES.

One may read the Ki as the equilibrium dissociation constant of an inhibitor or competing ligand from its target. A low value points to a stronger hold on the target. The term IC50 denotes the concentration that gives 50% inhibition. Read a low IC50 as inhibition by little substance.

As to `CC(=O)O[C@H](CCC[C@]12O[C@H](C(=O)O)[C@@](O)(C(=O)O)[C@](C(=O)O)(O1)[C@H](OC(=O)CC/C=C/[C@H](C)CCCc1ccccc1)[C@H]2O)[C@H](C)Cc1ccccc1` [ZARAGOZIC ACID C], the Ki at Squalene synthase [1] stood at 45 pM. Moreover, it took 300 pM to reach half-maximal inhibition against Squalene synthase [2] (IC50). In turn, `CCCCCCC[C@@H](CCC[C@]12O[C@H](C(=O)O)[C@@](O)(C(=O)O)[C@](C(=O)O)(O1)[C@H](OC(=O)CC/C=C/[C@@H](C)CCCc1ccccc1)[C@H]2O)OC(C)=O` [ZARAGOZIC ACID F] yielded an IC50 at Squalene synthase [2] of 2000 pM. Regarding `C[C@H](/C=C/CCC(=O)O[C@@H]1[C@@H](O)[C@@]2(CC/C=C/[C@H](C)CCCc3ccccc3)O[C@H](C(=O)O)[C@@](O)(C(=O)O)[C@]1(C(=O)O)O2)CCCc1ccccc1` [ZARAGOZIC ACID E], the IC50 at Squalene synthase [2] was 4000 pM. With `C[C@@H](CCCC[C@]12O[C@H](C(=O)O)[C@@](O)(C(=O)O)[C@](C(=O)O)(O1)[C@H](OC(=O)CC/C=C/[C@@H](C)CCCc1ccccc1)[C@H]2O)Cc1ccccc1`, the IC50 on Squalene synthase [2] came to 200 pM.

The values above are taken from ChEMBL document CHEMBL1151666, “Novel Zaragozic Acids from Leptodontidium elatius” (J Nat Prod, 1996).
